Substitutions are numbered along the chain they refer to.
How the values were obtained:
Type in all cases: cell-based
human FXR = target: T1, human FXR (Homo sapiens, UniProt Q96RI1); test: Reporter gene analysis, COS-7 cells cotransfected with full-length FXR and EcRE-Luc; conditions: 0.5 μM, COS-7, EcRE reporter, FIG. 2
T1 construct: expressed in transfected cells; host or cells: COS-7
T1 sequence (Q96RI1 1-472 isoform Q96RI1-2): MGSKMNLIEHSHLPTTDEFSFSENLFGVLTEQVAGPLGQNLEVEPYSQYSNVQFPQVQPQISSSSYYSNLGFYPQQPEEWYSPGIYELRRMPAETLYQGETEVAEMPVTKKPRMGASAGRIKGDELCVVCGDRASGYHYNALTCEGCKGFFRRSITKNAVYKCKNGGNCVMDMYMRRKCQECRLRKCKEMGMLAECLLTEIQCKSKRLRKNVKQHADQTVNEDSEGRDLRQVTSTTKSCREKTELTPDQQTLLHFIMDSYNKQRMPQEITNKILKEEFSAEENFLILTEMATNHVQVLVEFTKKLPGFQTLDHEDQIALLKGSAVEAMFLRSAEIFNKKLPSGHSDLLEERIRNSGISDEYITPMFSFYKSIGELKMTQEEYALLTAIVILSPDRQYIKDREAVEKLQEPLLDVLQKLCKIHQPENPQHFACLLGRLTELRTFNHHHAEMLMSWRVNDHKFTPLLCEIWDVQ
Experimental: DMEM medium containing 10% fetal bovine serum is used to perform the culture of monkey kidney epithelial cell COS-7 cells, and COS-7 cells are inoculated onto a 24-well plate on the day before transfection with an inoculation density of 5×10^4 cells/well, and transfected on the next day. The transfection is the transient transfection performed using Lipofectamine 2000 (Invitrogen). In the reporter gene analysis experiment, 200 ng of a nuclear receptor full-length expression plasmid or the expression plasmid of the mutant thereof, 200 ng of endogenous promoter reporter gene, and 30 ng of Renilla luciferase expression plasmid are used for cotransfection. 500 μl Opti-MEM is added to each well and cultured for 5 h, followed by adding a ligand medicament diluted in Opti-MEM to reach the corresponding concentration, and treating for 18 h. Various nuclear receptors and the corresponding reporter gene used are as follows: human FXR, EcRE-Luc; human PPARs (α, β, and γ), PPRE-Luc; human RORs (α, β and γ), Pcp2/RORE-Luc; human GR and PR, MMTV-Luc; human RARα and RARβ, and βRE-Luc.
A ligand can be tested for the affinity to FXR since the ligand can induce FXR to recruit coregulators after binding to FXR.

FXR A291W = target: T2, FXR A291W (Homo sapiens, UniProt Q96RI1, A305W); test: Reporter gene analysis with FXR point mutant A291W in COS-7 cells; conditions: COS-7, EcRE reporter, FIG. 5
T2 construct: the expression plasmid expressing full-length FXR (wt) or with mutations at the corresponding sites; expressed in transfected cells; host or cells: COS-7
T2 sequence (Q96RI1 1-472 isoform Q96RI1-2 A291W): T1 sequence (Q96RI1 1-472 isoform Q96RI1-2) with A291W
Experimental: (§1) (2) The expression vector of FXR with point mutations at key binding sites is obtained. Quick-Change site-directed mutagenesis kit (Stratagene) is used for mutation, and the mutation reaction system is as follows: wild-type plasmid pCMX-FXR (50 ng) of 0.5 μl, mutation primer (100 μM) of 0.2 μl, pfu DNA polymerase (Invitrogen) (2 U) of 1 μl, 10 mM dNTPs of 1 μl, 10× PCR buffer of 5 μl, and ddH2O of 43 μl. PCR procedures are performed as follows: 94° C. for 2 min; 94° C. for 30 s, 55° C. for 1 min, 72° C. for 7 min, 15 cycles. 20 μl PCR product is digested with Dpn I […], followed by taking and transforming 2 μl digestion product into E. coli Trans 109 competent cells, ice bath for 30 min, and heat shock at 42° C. for 30 s. 250 μl of LB liquid medium without antibiotics is added, and preshaken at 225 rpm at 37° C. for 40 min, followed by taking 150 μl of products, spreading same on LB solid medium plates with ampicillin at 100 μg/ml and culturing them at 37° C. overnight. On the next day, the single colony is picked out and placed in 2 ml LB liquid medium containing ampicillin at 100 μg/ml, and cultured at 37° C. overnight. Plasmid extraction is performed on the shaken bacterial solution using Qiagen MiniPrep Plasmid Minipreparation Kit. The plasmid is identified by sequencing.

FXR L287T = target: T3, FXR L287T (Homo sapiens, UniProt Q96RI1, L301T); test: Reporter gene analysis with FXR point mutant L287T in COS-7 cells; conditions: COS-7, EcRE reporter, vs wild-type FXR, FIG. 5
T3 construct: the expression plasmid expressing full-length FXR (wt) or with mutations at the corresponding sites; expressed in transfected cells; host or cells: COS-7
T3 sequence (Q96RI1 1-472 isoform Q96RI1-2 L287T): T1 sequence (Q96RI1 1-472 isoform Q96RI1-2) with L287T
Experimental: as §1

SMILES: CC[C@H](C)[C@H]1O[C@]2(CC[C@@H]1C)C[C@@H]1C[C@@H](C/C=C(\C)C(O[C@H]3C[C@H](OC)C(O[C@H]4C[C@H](OC)[C@@H](O)[C@H](C)O4)[C@H](C)O3)[C@@H](C)/C=C/C=C3\CO[C@@H]4[C@H](O)C(C)=CC(C(=O)O1)[C@]34O)O2 (stereo partly drawn) [ivermectin]
- transcriptional activity of FXR (human FXR): can only specifically activate the transcriptional activity of FXR
- transcriptional activity of FXR mutant A291W (FXR A291W): incapable of activating the transcriptional activity of FXR
- transcriptional activity of FXR mutant L287T (FXR L287T): significantly increasing

From patent US10052340B2 (XIAMEN UNIVERSITY, priority 2012, dated 2018)
